Laboratory results from US9133204B2, “5-membered heterocyclic amides and related compounds” (H. Lundbeck A/S, priority 2007, dated 2015).

Target: T1, P2X7 receptor (Homo sapiens, UniProt Q99572)
T1 construct: host or cells: SH-SY5Y
T1 sequence (Q99572 1-595): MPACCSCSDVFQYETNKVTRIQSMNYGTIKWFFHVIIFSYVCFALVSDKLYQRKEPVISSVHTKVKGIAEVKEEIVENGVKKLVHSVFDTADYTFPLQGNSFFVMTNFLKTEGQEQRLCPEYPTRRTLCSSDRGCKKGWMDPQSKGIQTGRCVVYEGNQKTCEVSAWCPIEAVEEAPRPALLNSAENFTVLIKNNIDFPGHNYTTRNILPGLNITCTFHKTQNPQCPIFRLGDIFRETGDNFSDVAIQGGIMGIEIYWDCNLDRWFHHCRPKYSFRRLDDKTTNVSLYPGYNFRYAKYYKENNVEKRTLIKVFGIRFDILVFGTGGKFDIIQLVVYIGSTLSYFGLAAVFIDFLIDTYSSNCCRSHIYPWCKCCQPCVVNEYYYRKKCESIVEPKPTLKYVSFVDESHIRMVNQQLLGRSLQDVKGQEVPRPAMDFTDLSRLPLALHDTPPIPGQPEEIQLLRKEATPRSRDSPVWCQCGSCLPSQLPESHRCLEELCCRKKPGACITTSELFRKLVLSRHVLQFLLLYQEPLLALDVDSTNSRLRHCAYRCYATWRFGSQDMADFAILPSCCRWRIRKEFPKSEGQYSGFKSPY
Experiment: High throughput P2X7 calcium mobilization assay (Example 4A)
Type: cell-based
Conditions: SH-SY5Y cells, 50% decrease in fluorescence response of cells exposed to 80 μM BzATP
Outline: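 SH-SY5Y cells loaded with 2.3 μM Fluo-4 AM for 1 h at 37 °C, then preincubated 1 h at room temperature with test compound (final 1–2500 nM) in low-sodium sucrose buffer, pH 7.4. Antagonism measured against 80 μM BzATP (about EC50) as peak FLIPR calcium fluorescence over 2 min, corrected by no-agonist background.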

[1] = flag after the MS data in Examples 1-2

Structure (SMILES)	IC50 [1] [nM]	IC50 (Table I) [nM]
CCc1nc(-c2ncccn2)sc1C(=O)NC[C@@H]1CCC2CC1C2(C)C (stereo partly drawn) [Compound 248, N-{[(2R)-6,6-dimethylbicyclo[3.1.1]hept-2-yl]methyl}-4-ethyl-2-pyrimidin-2-yl-1,3-thiazole-5-carboxamide]	–	≤ 2000
CC(C)n1nc(CN2CCCC(N)C2)cc1C(=O)NCC12CC3CC(CC(C3)C1)C2 (centres unmarked) [Compound 55, N-(adamantan-1-ylmethyl)-3-[(3-aminopiperidin-1-yl)methyl]-1-isopropyl-1H-pyrazole-5-carboxamide]	–	≤ 2000
Cc1cnc(-n2cc(C(=O)NCC34CC5CC(CC(C5)C3)C4)c(C)n2)nc1C(=O)N1CCOCC1 [Compound 4, N-(Adamantan-1-ylmethyl)-3-methyl-1-[5-methyl-4-(morpholin-4-ylcarbonyl)pyrimidin-2-yl]-1H-pyrazole-4-carboxamide]	≤ 2000	–
CCc1nc(-c2ncccn2)sc1C(=O)NCC(CC(C)C)c1ccccc1 (centres unmarked) [Compound 258, 4-ethyl-N-(4-methyl-2-phenylpentyl)-2-pyrimidin-2-yl-1,3-thiazole-5-carboxamide]	–	≤ 2000
CCCC(CNC(=O)c1sc(-c2cccnc2)nc1C)c1ccc(Cl)cc1 (centres unmarked) [Compound 35, N-[2-(4-chlorophenyl)pentyl}-4-methyl-2-pyridin-3-yl-1,3-thiazole-5-carboxamide]	≤ 2000	–
CCc1nc(-c2ncccn2)sc1C(=O)NCC(CC(C)C)c1ccc(Cl)nc1 (centres unmarked) [Compound 299, N-[2-(6-chloropyridin-3-yl)-4-methylpentyl]-4-ethyl-2-pyrimidin-2-yl-1,3-thiazole-5-carboxamide]	–	≤ 2000
CCn1nc(C)c(Br)c1C(=O)NCC12CC3CC(CC(C3)C1)C2 [Compound 63, N-(adamantan-1-ylmethyl)-4-bromo-1-ethyl-3-methyl-1H-pyrazole-5-carboxamide]	–	≤ 2000
O=C(NCC12CC3CC(CC(C3)C1)C2)c1ccc(Br)s1 [Compound 76, N-(1-adamantylmethyl)-5-bromothiophene-2-carboxamide]	–	≤ 2000
CCCC(CNC(=O)c1sc(-c2ncccn2)nc1C(F)(F)F)c1ccc(Cl)cc1 (centres unmarked) [Compound 160, N-[2-(4-chlorophenyl)pentyl]-2-pyrimidin-2-yl-4-(trifluoromethyl)-1,3-thiazole-5-carboxamide]	–	≤ 2000
O=C(NCC12CC3CC(CC(C3)C1)C2)c1ccnn1Cc1ccccc1 [Compound 17, N-(Adamantan-1-ylmethyl)-1-benzyl-1H-pyrazole-5-carboxamide]	≤ 2000	–
COc1nccnc1-n1cc(C(=O)NCC23CC4CC(CC(C4)C2)C3)c(C)n1 [Compound 42, N-(adamantan-1-ylmethyl)-1-(3-methoxypyrazin-2-yl)-3-methyl-1H-pyrazole-4-carboxamide]	–	≤ 2000
Cc1cc(-n2cc(C(=O)NCC34CC5CC(CC(C5)C3)C4)c(C)n2)nc(N)n1 [Compound 64, N-(adamantan-1-ylmethyl)-1-(2-amino-6-methylpyrimidin-4-yl)-3-methyl-1H-pyrazole-4-carboxamide]	–	≤ 2000
Cc1nc(Sc2nccn2C)c(C(=O)NCC23CC4CC(CC(C4)C2)C3)s1 [Compound 69, N-(adamantan-1-ylmethyl)-2-methyl-4-[(1-methyl-1H-imidazol-2-yl)thio]-1,3-thiazole-5-carboxamide]	–	≤ 2000
O=C(NCC12CC3CC(CC(C3)C1)C2)c1cn(-c2ncccn2)nc1C1CC1 [Compound 145, N-(adamantan-1-ylmethyl)-3-cyclopropyl-1-pyrimidin-2-yl-1H-pyrazole-4-carboxamide]	–	≤ 2000

Second part, the compound after the results:

IC50 [1] [nM]	IC50 (Table I) [nM]	Structure (SMILES)
≤ 2000	–	Cc1ccc(C2(CNC(=O)c3sc(-c4cccnc4)nc3C)CCCCC2)cc1 [Compound 38, N-{[1-(4-methylphenyl)cyclohexyl]methyl}-4-methyl-2-pyridin-3-yl-1,3-thiazole-5-carboxamide]
–	≤ 2000	Cc1nn(-c2cncc(N)n2)cc1C(=O)NCC12CC3CC(CC(C3)C1)C2 [Compound 43, N-(adamantan-1-ylmethyl)-1-(6-aminopyrazin-2-yl)-3-methyl-1H-pyrazole-4-carboxamide]
–	≤ 2000	Cc1cnc(-n2cc(C(=O)NCC34CC5CC(CC(C5)C3)C4)c(C)n2)nc1Br [Compound 91, N-(adamantan-1-ylmethyl)-1-(4-bromo-5-methylpyrimidin-2-yl)-3-methyl-1H-pyrazole-4-carboxamide]
–	≤ 2000	O=C(NCC1(c2cccnc2)CCCCC1)c1sc(-c2ccccn2)nc1C(F)(F)F [Compound 321, 2-pyridin-2-yl-N-[(1-pyridin-3-ylcyclohexyl)methyl]-4-(trifluoromethyl)-1,3-thiazole-5-carboxamide]
–	≤ 2000	CCc1nc(-n2cc(C(=O)NCC34CC5CC(CC(C5)C3)C4)c(C)n2)ncc1C [Compound 106, N-(adamantan-1-ylmethyl)-1-(4-ethyl-5-methylpyrimidin-2-yl)-3-methyl-1H-pyrazole-4-carboxamide]
–	≤ 2000	Cc1cccnc1-n1cc(C(=O)NCC23CC4CC(CC(C4)C2)C3)c(C(F)(F)F)n1 [Compound 132, N-(adamantan-1-ylmethyl)-1-(3-methylpyridin-2-yl)-3-(trifluoromethyl)-1H-pyrazole-4-carboxamide]
–	≤ 2000	Cc1c(N)ncnc1-n1cc(C(=O)NCC23CC4CC(CC(C4)C2)C3)c(C(F)(F)F)n1 [Compound 128, N-(adamantan-1-ylmethyl)-1-(6-amino-5-methylpyrimidin-4-yl)-3-(trifluoromethyl)-1H-pyrazole-4-carboxamide]
≤ 2000	–	Cc1nc(-c2cccnc2)sc1C(=O)NCC1(c2ccc(F)cc2)CCCCC1 [Compound 34]
–	≤ 2000	O=C(NCC1(c2cccnc2)CCCCC1)c1sc(N2CCC(O)CC2)nc1C(F)(F)F [Compound 295, 2-(4-hydroxypiperidin-1-yl)-N-[(1-pyridin-3-ylcyclohexyl)methyl]-4-(trifluoromethyl)-1,3-thiazole-5-carboxamide]
–	≤ 2000	O=C(NCC1(c2cccnc2)CCCCC1)c1sc(-c2cccc3cccnc23)nc1C(F)(F)F [Compound 319, N-[(1-pyridin-3-ylcyclohexyl)methyl]-2-quinolin-8-yl-4-(trifluoromethyl)-1,3-thiazole-5-carboxamide]
–	≤ 2000	O=C(NCC1(c2cccnc2)CCCCC1)c1sc(-n2ncccc2=O)nc1C(F)(F)F [Compound 307, 2-(6-oxopyridazin-1(6H)-yl)-N-[(1-pyridin-3-ylcyclohexyl)methyl]-4-(trifluoromethyl)-1,3-thiazole-5-carboxamide]
–	≤ 2000	Nc1cnc(-n2cc(C(=O)NCC34CC5CC(CC(C5)C3)C4)c(C(F)(F)F)n2)cn1 [Compound 148, N-(adamantan-1-ylmethyl)-1-(5-aminopyrazin-2-yl)-3-(trifluoromethyl)-1H-pyrazole-4-carboxamide]
≤ 2000	–	Cn1nc(-c2ccccc2)cc1C(=O)NCC1(c2cccnc2)CCCCC1 [Compound 19, 1-Methyl-3-phenyl-N-[(1-pyridin-3-ylcyclohexyl)methyl]-1H-pyrazole-5-carboxamide]
–	≤ 2000	Cc1nn(-c2ccccn2)cc1C(=O)NCC12CC3CC(CC(C3)C1)C2 [Compound 98]
–	≤ 2000	Cc1cnc(-n2cc(C(=O)NCC34CC5CC(CC(C5)C3)C4)c(C)n2)nc1NCCO [Compound 56, N-(adamantan-1-ylmethyl)-1-{4-[(2-hydroxyethyl)amino]-5-methylpyrimidin-2-yl}-3-methyl-1H-pyrazole-4-carboxamide]
–	≤ 2000	O=C(NCC12CC3CC(CC(C3)C1)C2)c1cn(-c2cc(=O)[nH]cn2)nc1C(F)(F)F [Compound 153, N-(adamantan-1-ylmethyl)-1-(6-oxo-1,6-dihydropyrimidin-4-yl)-3-(trifluoromethyl)-1H-pyrazole-4-carboxamide]
–	≤ 2000	Cc1cnc(-n2cc(C(=O)NCC34CC5CC(CC(C5)C3)C4)c(C)n2)nc1C(N)=O [Compound 96, 2-{4-[(adamantan-1-ylmethyl)carbamoyl]-3-methyl-1H-pyrazol-1-yl}-5-methylpyrimidine-4-carboxamide]
–	≤ 2000	Cc1nn(-c2nccnc2N)cc1C(=O)NCC12CC3CC(CC(C3)C1)C2 [Compound 58, N-(adamantan-1-ylmethyl)-1-(3-aminopyrazin-2-yl)-3-methyl-1H-pyrazole-4-carboxamide]
–	≤ 2000	CCCCCCC(CNC(=O)c1cn(-c2ncccn2)nc1C(F)(F)F)c1ccccc1 (centres unmarked) [Compound 212, N-(2-phenyloctyl)-1-pyrimidin-2-yl-3-(trifluoromethyl)-1H-pyrazole-4-carboxamide]
–	≤ 2000	Cc1nn(-c2ncc(Br)cn2)cc1C(=O)NCC12CC3CC(CC(C3)C1)C2 [Compound 125, N-(adamantan-1-ylmethyl)-1-(5-bromopyrimidin-2-yl)-3-methyl-1H-pyrazole-4-carboxamide]
–	≤ 2000	Cc1cnc(-n2cc(C(=O)NCC3(c4cccnc4)CCCCC3)c(C(F)(F)F)n2)nc1N [Compound 156, 1-(4-amino-5-methylpyrimidin-2-yl)-N-[(1-pyridin-3-ylcyclohexyl)methyl]-3-(trifluoromethyl)-1H-pyrazole-4-carboxamide]
